BindingDB's records for PubMed 35766919 (Zhejiang University, 2022)

Molecular target: Maltase-glucoamylase (Homo sapiens, UniProt O43451)
Assay: Inhibition of alpha-glucosidase (unknown origin) using p-nitrophenyl-alpha-D-glucopyranoside as substrate incubated for 10 mins followed by substrate addition and measured after 15 mins by microplate reader analysis

Chain of Maltase-glucoamylase (O43451 whole entry): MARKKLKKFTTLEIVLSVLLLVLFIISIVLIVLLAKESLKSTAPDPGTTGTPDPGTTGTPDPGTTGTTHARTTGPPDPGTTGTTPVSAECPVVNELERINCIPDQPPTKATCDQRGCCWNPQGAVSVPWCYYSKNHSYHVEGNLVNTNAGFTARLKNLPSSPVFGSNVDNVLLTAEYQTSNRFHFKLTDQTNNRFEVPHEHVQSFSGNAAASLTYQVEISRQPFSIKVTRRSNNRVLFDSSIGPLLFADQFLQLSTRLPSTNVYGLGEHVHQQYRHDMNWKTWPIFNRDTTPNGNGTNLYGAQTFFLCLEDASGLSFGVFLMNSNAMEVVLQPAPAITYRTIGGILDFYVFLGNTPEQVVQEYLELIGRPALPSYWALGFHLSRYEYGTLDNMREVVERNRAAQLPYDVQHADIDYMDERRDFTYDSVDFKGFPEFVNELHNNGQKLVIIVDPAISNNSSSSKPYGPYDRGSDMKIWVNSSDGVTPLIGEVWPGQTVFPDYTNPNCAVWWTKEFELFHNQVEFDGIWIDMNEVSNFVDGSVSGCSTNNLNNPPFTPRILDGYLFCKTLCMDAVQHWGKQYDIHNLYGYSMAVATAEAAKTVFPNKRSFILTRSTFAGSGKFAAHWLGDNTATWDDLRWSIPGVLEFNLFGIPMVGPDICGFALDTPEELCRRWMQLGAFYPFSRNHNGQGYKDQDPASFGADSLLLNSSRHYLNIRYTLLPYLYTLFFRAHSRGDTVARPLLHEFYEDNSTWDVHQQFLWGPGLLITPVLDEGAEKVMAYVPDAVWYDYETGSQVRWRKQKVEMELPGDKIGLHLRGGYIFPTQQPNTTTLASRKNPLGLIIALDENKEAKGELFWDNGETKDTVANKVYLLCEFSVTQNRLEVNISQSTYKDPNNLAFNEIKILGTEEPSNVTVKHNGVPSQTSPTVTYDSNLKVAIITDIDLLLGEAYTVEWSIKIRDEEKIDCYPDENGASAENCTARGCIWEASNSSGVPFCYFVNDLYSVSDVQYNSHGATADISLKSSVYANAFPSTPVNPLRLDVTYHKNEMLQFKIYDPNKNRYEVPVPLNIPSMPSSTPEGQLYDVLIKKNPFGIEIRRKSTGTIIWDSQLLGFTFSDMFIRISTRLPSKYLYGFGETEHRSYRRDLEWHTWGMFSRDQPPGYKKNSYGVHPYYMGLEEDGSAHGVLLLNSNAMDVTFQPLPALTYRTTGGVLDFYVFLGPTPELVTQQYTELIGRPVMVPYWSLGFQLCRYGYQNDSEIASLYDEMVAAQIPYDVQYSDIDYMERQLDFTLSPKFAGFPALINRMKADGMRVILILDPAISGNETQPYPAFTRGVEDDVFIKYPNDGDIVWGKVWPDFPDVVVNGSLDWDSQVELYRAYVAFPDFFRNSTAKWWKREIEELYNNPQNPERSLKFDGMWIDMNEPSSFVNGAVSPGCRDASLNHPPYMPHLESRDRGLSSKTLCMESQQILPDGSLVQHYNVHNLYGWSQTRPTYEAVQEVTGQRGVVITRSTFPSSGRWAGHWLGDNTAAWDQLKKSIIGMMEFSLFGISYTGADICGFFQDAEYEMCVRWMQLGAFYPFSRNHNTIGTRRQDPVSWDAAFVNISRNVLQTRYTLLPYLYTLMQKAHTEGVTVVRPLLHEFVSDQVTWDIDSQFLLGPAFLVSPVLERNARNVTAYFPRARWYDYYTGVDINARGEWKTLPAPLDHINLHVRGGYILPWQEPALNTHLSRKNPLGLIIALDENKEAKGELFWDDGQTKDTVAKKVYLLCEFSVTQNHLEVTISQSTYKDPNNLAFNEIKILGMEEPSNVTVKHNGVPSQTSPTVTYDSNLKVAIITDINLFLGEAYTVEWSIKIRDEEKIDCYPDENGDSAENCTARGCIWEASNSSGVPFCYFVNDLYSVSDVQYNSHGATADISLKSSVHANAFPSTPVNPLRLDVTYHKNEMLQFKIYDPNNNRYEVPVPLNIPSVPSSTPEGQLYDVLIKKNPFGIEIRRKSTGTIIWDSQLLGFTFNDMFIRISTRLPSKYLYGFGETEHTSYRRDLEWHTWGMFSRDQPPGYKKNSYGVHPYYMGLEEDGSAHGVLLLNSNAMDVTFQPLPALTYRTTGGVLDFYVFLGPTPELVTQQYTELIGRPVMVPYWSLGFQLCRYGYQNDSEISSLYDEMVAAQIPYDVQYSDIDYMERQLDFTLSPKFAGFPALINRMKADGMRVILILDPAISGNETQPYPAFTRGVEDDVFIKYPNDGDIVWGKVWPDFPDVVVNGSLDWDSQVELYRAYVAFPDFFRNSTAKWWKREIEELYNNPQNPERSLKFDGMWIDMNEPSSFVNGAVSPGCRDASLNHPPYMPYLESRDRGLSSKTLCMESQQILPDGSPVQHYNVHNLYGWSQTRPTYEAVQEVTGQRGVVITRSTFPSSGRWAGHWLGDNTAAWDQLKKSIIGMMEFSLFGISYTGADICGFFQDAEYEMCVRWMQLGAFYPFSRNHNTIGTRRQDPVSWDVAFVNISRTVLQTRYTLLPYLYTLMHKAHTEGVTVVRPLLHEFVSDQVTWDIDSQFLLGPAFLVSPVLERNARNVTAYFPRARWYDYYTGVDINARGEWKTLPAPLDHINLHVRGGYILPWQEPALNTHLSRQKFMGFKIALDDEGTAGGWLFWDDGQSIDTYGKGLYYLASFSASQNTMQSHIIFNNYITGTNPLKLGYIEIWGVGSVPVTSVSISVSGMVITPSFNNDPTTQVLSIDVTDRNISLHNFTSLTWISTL

| IC50 [µM] | SMILES |
| --- | --- |
| 0.89 | Cc1cc(O)c2c(c1)-c1c(-c3ccc(O)cc3)c(=O)oc3c1c-2c(O)c1cccc(O)c13 |
| 1.58 | Cc1cc(O)c2c(c1)-c1c(-c3c[nH]c4ccccc34)c(=O)oc3c1c-2c(O)c1cccc(O)c13 |
